{
  "source": "paper PMC8411522",
  "about": "“In vitro inhibitory effect of obtusofolin on the activity of CYP3A4, 2C9, and 2E1” (BMC Complementary Medicine and Therapies, 2021)",
  "key": {"CYP2E1 [1]": {"molecular_target": "T1, CYP2E1 (Homo sapiens, UniProt P05181)", "T1 construct": "Pooled HLMs were obtained from BD Bioscience (Woburn, USA); tissue BD Bioscience; host or cells: pooled human liver microsomes", "T1 sequence (P05181 whole entry)": "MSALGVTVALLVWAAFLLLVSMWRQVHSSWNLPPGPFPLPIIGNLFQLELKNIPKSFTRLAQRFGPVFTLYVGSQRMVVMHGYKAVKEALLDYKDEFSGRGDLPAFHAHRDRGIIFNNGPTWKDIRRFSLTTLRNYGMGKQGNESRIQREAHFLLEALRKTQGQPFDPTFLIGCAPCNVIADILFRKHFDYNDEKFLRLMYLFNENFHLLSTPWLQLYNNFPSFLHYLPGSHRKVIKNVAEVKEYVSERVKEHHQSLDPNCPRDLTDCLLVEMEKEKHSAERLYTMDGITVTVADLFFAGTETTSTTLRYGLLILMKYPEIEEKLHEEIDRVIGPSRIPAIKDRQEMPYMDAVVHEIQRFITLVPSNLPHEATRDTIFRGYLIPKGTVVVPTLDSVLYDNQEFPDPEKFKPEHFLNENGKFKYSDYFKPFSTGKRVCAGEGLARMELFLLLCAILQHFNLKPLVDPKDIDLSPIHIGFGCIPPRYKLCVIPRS", "assay": "Time-dependent inhibition of CYP2E1 in pooled HLMs", "type": "in vitro ADME", "conditions": "20 μM obtusofolin, 5 to 30 min", "protocol": "(§1) The time-dependent inhibition experiments were conducted at the incubation time of 0, 5, 10, 15, and 30 min at 37 °C with 20 μM obtusofolin. After the incubation, a total of 20 μL aliquot was transferred to another tube with the NADPH-generating system and probe substrates and incubation for a specific time. The reactions were terminated by the addition of acetonitrile and placed on ice for further analysis."}, "CYP2C9 [2]": {"molecular_target": "T2, CYP2C9 (Homo sapiens, UniProt P11712)", "T2 construct": "Pooled HLMs were obtained from BD Bioscience (Woburn, USA); tissue BD Bioscience; host or cells: pooled human liver microsomes", "T2 sequence (P11712 whole entry)": "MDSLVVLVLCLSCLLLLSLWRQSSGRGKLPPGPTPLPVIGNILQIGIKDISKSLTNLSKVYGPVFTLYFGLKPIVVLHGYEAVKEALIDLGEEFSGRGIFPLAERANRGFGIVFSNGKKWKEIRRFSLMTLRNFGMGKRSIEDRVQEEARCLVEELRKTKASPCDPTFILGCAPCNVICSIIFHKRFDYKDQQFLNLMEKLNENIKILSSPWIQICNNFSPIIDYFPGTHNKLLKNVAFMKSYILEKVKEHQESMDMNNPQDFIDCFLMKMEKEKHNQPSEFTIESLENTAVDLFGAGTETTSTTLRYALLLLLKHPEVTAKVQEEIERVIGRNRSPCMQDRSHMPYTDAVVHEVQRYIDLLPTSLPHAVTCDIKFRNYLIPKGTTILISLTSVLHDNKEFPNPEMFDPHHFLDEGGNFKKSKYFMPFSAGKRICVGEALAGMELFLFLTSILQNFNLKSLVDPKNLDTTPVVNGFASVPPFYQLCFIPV", "assay": "CYP2C9 inhibition in pooled human liver microsomes (diclofenac 4′-hydroxylation)", "type": "in vitro ADME", "protocol": "(§2) The investigation was conducted in pool human liver microsomes in vitro. Except for the HLMs treated with 100 μM obtusofolin, specific inhibitors, and negative control HLMs were also employed.\n(§3) The incubation volume was 200 μL containing potassium phosphate buffer (pH 7.4), an NADPH-generating system composed of NADP^+, glucose-6-phosphate, glucose-6-phosphate dehydrogenase, and MgCl2, probe substrates, HLMs, and obtusofolin or positive inhibitors. The experiments for each CYP isoforms were performed in triplicate and the obtained results were represented as mean value ± SD.\n(§4) The reactions were initiated by adding the NADPH-generating system after a 3-min preincubation at 37 °C. The reactions were terminated by adding 100 μL acetonitrile or 10% (v:v) trichloroacetic. The mixture was placed on ice and centrifuged at 12,000 rpm for 10 min. A total of 20 μL supernatant was obtained for the analysis of metabolites by HPLC.\n(§5) Firstly, 100 μM obtusofolin was incubated with the above incubation system in HLMs to evaluate its effect on the activity of CYP450s. Then the dose-dependent experiments were performed to obtain corresponding parameters in the presence of 0, 2.5, 5, 10, 25, 50, and 100 μM obtusofolin. The concentrations of probe substrates were 20–100 μM testosterone for CYP3A4, 5–20 μM diclofenac for CYP2C9, and 25–250 μM chlorzoxazone for CYP2E1.\n(§6) The enzyme kinetic parameters were obtained by the least-squares linear regression. The inhibition data were fitted with non-linear regression according to the following equation: V=VmaxS/Km1+I/Ki+Sfor competitive inhibitionCYP2C9 and 2E1; V=VmaxS/Km+S1+I/Kifor non−competitive inhibitionCYP3A4.\n(§7) where I is the concentration of the compound, Ki is the inhibition constant, S is the concentration of the substrate and Km is the substrate concentration at half the maximum velocity (Vmax) of the reaction. The mechanism of the inhibition was inspected using the Lineweaver–Burk plots and the enzyme inhibition models. The data comparison was performed using the Student’s t-test and performed using IBM SPSS statistics 20 (SPSS Inc., Chicago, IL, USA)."}, "CYP3A4 [3]": {"molecular_target": "T3, CYP3A4 (Homo sapiens, UniProt P08684)", "T3 construct": "Pooled HLMs were obtained from BD Bioscience (Woburn, USA); tissue BD Bioscience; host or cells: pooled human liver microsomes", "T3 sequence (P08684 whole entry)": "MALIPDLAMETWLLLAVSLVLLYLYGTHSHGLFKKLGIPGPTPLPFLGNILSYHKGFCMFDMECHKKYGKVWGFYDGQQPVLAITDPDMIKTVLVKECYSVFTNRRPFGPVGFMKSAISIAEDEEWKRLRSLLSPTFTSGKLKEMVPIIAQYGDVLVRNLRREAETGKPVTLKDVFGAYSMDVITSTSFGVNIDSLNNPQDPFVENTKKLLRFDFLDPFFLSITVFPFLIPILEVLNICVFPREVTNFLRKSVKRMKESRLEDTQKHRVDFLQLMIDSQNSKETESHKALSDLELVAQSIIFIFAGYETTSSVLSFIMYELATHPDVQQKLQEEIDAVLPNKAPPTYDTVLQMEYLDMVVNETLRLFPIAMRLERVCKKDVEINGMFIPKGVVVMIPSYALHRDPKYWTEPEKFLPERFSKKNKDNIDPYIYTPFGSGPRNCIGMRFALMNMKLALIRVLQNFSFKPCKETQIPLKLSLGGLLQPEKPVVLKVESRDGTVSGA", "assay": "Time-dependent inhibition of CYP3A4 in pooled HLMs", "type": "in vitro ADME", "protocol": "as §1\nThe time-dependent characteristic was estimated by the values of KI and Kinact obtained from further experiments. The incubation was performed with 0, 2, 5, 10, 20, and 50 μM obtusofolin and a higher concentration of substrates (approximately 4-fold to Km) for 0, 5, 10, 15, and 30 min. The incubation scheme was performed as described above. The fitting equation to obtain the value of KI and Kinact was: 1/Kobs=KI/Kinact∗1/I+1/Kinact\nwhere Kobs is the pseudo-first-order rate constant of inactivation at inactivated concentration [I], Kinact is the maximum inactivation rate (a theoretical value that cannot be experimentally observed), and KI is the inactivated concentration when the rate of inactivation reaches half of Kinact."}, "CYP3A4 [4]": {"molecular_target": "T3, CYP3A4", "assay": "CYP3A4 inhibition in pooled human liver microsomes (testosterone 6β-hydroxylation)", "type": "in vitro ADME", "protocol": "as §2, §3, §4, §5, §6, §7"}, "[5]": {"parameters": "method as in PMID 33119923", "conditions": "rats, 1.3 mg/kg obtusofolin; cited from earlier work"}, "CYP2C9 [6]": {"molecular_target": "T2, CYP2C9", "assay": "Time-dependent inhibition of CYP2C9 in pooled HLMs", "type": "in vitro ADME", "conditions": "20 μM obtusofolin, 5 to 30 min", "protocol": "as §1"}, "CYP2E1 [7]": {"molecular_target": "T1, CYP2E1", "assay": "CYP2E1 inhibition in pooled human liver microsomes (chlorzoxazone 6-hydroxylation)", "type": "in vitro ADME", "protocol": "as §2, §3, §4, §5, §6, §7"}, "[8]": {"conditions": "100 μM obtusofolin, pooled HLMs, P < 0.05 vs negative control"}, "[9]": {"conditions": "Lineweaver–Burk plots, best fit"}, "[10]": {"conditions": "pooled HLMs, 0, 2.5, 5, 10, 25, 50, 100 μM obtusofolin, mean ± SD, triplicate"}},
  "data": [
    {"smiles": "COc1c(O)c(C)cc2c1C(=O)c1c(O)cccc1C2=O", "note": "[obtusofolin]", "values": [
      {"measurement": "inhibitory effect on CYP2E1 versus incubation time", "setting": "CYP2E1 [1]", "result": "not affected"},
      {"measurement": "activity of CYP2C9", "setting": "CYP2C9 [2]; [8]", "result": "significantly suppressed"},
      {"measurement": "inhibition model of CYP2C9", "setting": "CYP2C9 [2]; [9]", "result": "competitive"},
      {"measurement": "Ki", "setting": "CYP2C9 [2]; competitive model, 5–20 μM diclofenac, pooled HLMs", "result": 5.54, "unit": "µM"},
      {"measurement": "IC50", "setting": "CYP2C9 [2]; [10]", "result": "10.8 ± 0.13", "unit": "µM"},
      {"measurement": "inhibitory effect on CYP3A4 versus incubation time", "setting": "CYP3A4 [3]; 20 μM obtusofolin, 5 to 30 min", "result": "increased with the incubation time"},
      {"measurement": "kinact", "setting": "CYP3A4 [3]; human, pooled human liver microsomes, 0, 2, 5, 10, 20, 50 μM obtusofolin, 0-30 min, substrate approx. 4-fold Km", "result": 0.000858, "unit": "s⁻¹"},
      {"measurement": "CYP3A4 inactivated per minute", "setting": "CYP3A4 [3]; saturating concentration of obtusofolin", "result": "approximately 5.15%"},
      {"measurement": "activity of CYP3A4", "setting": "CYP3A4 [4]; [8]", "result": "significantly suppressed"},
      {"measurement": "inhibition model of CYP3A4", "setting": "CYP3A4 [4]; [9]", "result": "non-competitive"},
      {"measurement": "Ki", "setting": "CYP3A4 [4]; non-competitive model, 20–100 μM testosterone, pooled HLMs", "result": 8.82, "unit": "µM"},
      {"measurement": "IC50", "setting": "CYP3A4 [4]; [10]", "result": "17.1 ± 0.25", "unit": "µM"},
      {"measurement": "maximum (plasma concentration)", "setting": "[5]", "result": "152.5 ± 62.3", "unit": "ng/mL"},
      {"measurement": "inhibitory effect on CYP2C9 versus incubation time", "setting": "CYP2C9 [6]", "result": "not affected"},
      {"measurement": "activity of CYP2E1", "setting": "CYP2E1 [7]; [8]", "result": "significantly suppressed"},
      {"measurement": "inhibition model of CYP2E1", "setting": "CYP2E1 [7]; [9]", "result": "competitive"},
      {"measurement": "Ki", "setting": "CYP2E1 [7]; competitive model, 25–250 μM chlorzoxazone, pooled HLMs", "result": 7.79, "unit": "µM"},
      {"measurement": "IC50", "setting": "CYP2E1 [7]; [10]", "result": "15.5 ± 0.16", "unit": "µM"}
    ]}
  ]
}
